This is an account of results in ChEMBL document CHEMBL1146306, “Design and synthesis of conformationally constrained tri-substituted ureas as potent antagonists of the human glucagon receptor” (Bioorg Med Chem Lett, 2007).

Data set [1] concerns the target T1, Gastric inhibitory polypeptide receptor (Homo sapiens, UniProt P48546).
T1 sequence (P48546 whole entry): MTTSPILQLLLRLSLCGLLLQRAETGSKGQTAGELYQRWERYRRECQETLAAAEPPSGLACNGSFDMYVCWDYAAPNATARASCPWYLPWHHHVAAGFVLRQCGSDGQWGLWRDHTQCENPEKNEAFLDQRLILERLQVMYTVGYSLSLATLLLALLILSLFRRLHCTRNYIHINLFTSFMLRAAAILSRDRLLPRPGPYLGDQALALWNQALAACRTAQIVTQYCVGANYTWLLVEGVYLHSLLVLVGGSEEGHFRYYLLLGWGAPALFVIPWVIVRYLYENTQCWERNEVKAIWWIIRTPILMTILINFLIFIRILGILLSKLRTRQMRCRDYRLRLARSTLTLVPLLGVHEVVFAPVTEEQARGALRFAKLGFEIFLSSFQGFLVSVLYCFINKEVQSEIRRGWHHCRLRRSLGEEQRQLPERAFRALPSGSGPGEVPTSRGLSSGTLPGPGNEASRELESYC
Briefly: Antagonist activity at human GIP receptor transfected in CHO cells assessed as inhibition of […] cAMP accumulation. Format: functional, cell-based.

The nature of data set [2]: Plasma clearance in mouse at 1 mg/kg, iv and 2 mg/kg, po. Format: ADME, organism-based.
Data set [3] can be described thus: Volume of distribution at steady state in mouse at 1 mg/kg, iv and 2 mg/kg, po. Format: ADME, organism-based. The settings on record: in vivo, read-out: Vdss.
Data set [4] is described as follows: Half life in mouse at 1 mg/kg, iv and 2 mg/kg, po. The settings on record: in vivo. Format: ADME, organism-based.
The nature of data set [5]: Cmax in mouse at 1 mg/kg, iv and 2 mg/kg, po. Format: ADME, organism-based. Particulars: in vivo; call rule not given here.
The nature of data set [6]: Bioavailability in mouse at 1 mg/kg, iv and 2 mg/kg, po. Format: ADME, organism-based. Particulars: in vivo.
Data set [7] deals with Mus musculus. Briefly: Inhibition of glucagon-induced hyperglycemic response in transgenic mouse expressing human glucagon receptor at 3 mg/kg, po after 24 mins relative to control. Particulars: 0.4 h. Format: functional.
The test system of data set [8] is Mus musculus. Description: Inhibition of glucagon-induced hyperglycemic response in transgenic mouse expressing human glucagon receptor at 10 mg/kg, po after 24 mins relative to control. Format: functional. The settings on record: 0.4 h.
Data set [9] relates to Mus musculus. Briefly: Inhibition of glucagon-induced hyperglycemic response in transgenic mouse expressing human glucagon receptor at 30 mg/kg, po after 24 mins relative to control. Format: functional. Particulars: 0.4 h.
In data set [10] the test system is Mus musculus. Briefly: Decrease in non-fasting blood glucose level in transgenic diabetic mouse expressing human glucagon receptor at 3 mg/kg, po after 3 days relative to lean control. Format: functional. Details: scale not given: the % may be the effect or the level left.
Data set [11] deals with Mus musculus. Briefly: Decrease in non-fasting blood glucose level in transgenic diabetic mouse expressing human glucagon receptor at 3 mg/kg, po after 10 days relative to lean control. Format: functional. More on the design: scale not given: the % may be the effect or the level left.
In data set [12] the test system is Mus musculus. Briefly: Decrease in non-fasting blood glucose level in transgenic diabetic mouse expressing human glucagon receptor at 10 mg/kg, po after 3 days relative to lean control. Format: functional. More on the design: scale not given: the % may be the effect or the level left.
The subject of data set [13] is Mus musculus. Briefly: Decrease in non-fasting blood glucose level in transgenic diabetic mouse expressing human glucagon receptor at 10 mg/kg, po after 10 days relative to lean control. Format: functional. More on the design: scale not given: the % may be the effect or the level left.
Data set [14] has as its target T2, Glucagon receptor (Homo sapiens, UniProt P47871). Briefly: Displacement of [125]glucagon from human glucagon receptor expressed in CHO cells. Format: cell-based.
Data set [15] concerns the target T2, Glucagon receptor. Briefly: Antagonist activity at human glucagon receptor transfected in CHO cells assessed as inhibition of glucagon-induced cAMP accumulation. Format: functional, cell-based. Background: cAMP levels reflect the balance of adenylyl cyclase and phosphodiesterase activity.
The test system of another data set is CHO. Briefly: Selectivity for human glucagon receptor over human GIP receptor expressed in CHO cells by glucagon-stimulated cAMP accumulation assay. Format: cell-based.

Structures are written as SMILES. Some results are limits rather than exact numbers.

T2 sequence (P47871 whole entry): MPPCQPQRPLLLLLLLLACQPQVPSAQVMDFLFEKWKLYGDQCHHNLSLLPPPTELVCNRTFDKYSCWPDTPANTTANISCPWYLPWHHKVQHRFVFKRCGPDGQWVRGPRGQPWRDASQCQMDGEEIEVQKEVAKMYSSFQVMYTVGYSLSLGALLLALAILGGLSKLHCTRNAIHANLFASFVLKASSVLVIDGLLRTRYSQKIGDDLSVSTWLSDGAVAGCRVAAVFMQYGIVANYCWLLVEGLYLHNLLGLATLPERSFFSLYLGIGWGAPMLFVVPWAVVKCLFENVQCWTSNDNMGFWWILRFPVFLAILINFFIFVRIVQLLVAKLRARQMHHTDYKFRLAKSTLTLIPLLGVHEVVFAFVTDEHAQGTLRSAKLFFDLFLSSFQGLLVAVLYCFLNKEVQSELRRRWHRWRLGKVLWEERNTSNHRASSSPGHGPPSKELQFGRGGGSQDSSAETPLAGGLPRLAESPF

As for `CC(C)(C)[C@H]1CC[C@H](N(C(=O)Nc2ccc(OC(F)(F)F)cc2)C2CCc3cc(C(=O)NCCC(=O)O)ccc32)CC1` (stereo not given in full), in [1], the IC50 (as a rule, the concentration that inhibits the measured activity by half) is 132 nM. In data set [2], the clearance is 9 mL/min/kg. The Vd in data set [3] was found to be 1.6 L/kg. Moreover, the half-life (commonly the time in which the quantity being followed falls by half) in data set [4] was 5.6 h. The Cmax (usually the highest concentration seen after dosing) in data set [5] is 130 nM. Besides, in [6], the bioavailability – broadly, dose-corrected exposure relative to a reference, in per cent – is 17%. Also, the inhibition in vivo (commonly the relative decrease from the control value, in per cent) at 3 mg/kg in the data set on Mus musculus [7] was 51%. For the same molecule, the inhibition in vivo at 10 mg/kg in the data set on Mus musculus [8] is 59%. For the same molecule, the inhibition in vivo at 30 mg/kg in the data set on Mus musculus [9] is 122%. Further, the Activity is 72% in the data set on Mus musculus [10], 87% with Mus musculus [11], 99% in the data set on Mus musculus [12] and 106% with Mus musculus [13].

With `CC(C)(C)[C@H]1CC[C@H](N(C(=O)c2ccc(OC(F)(F)F)cc2)C2CCc3cc(C(=O)Nc4nnn[nH]4)ccc32)CC1` (stereo not given in full), the IC50 was determined as 49 nM on Glucagon receptor [14], 1470 nM on Glucagon receptor [15] (read-out: IC50) and 610 nM in [1].

Consider `CC(C)(C)[C@H]1CC[C@@H](N(C(=O)Nc2ccc(OC(F)(F)F)cc2)C2CCc3cc(C(=O)Nc4nn[nH]n4)ccc32)CC1` (single isomer, unassigned), for which the IC50 at Glucagon receptor [14] was determined as 1.01 nM; at Glucagon receptor [15] (read-out: IC50), 18 nM; in [1], 435 nM.

For `CC(C)(C)[C@H]1CC[C@H](N(C(=O)Cc2ccc(OC(F)(F)F)cc2)C2CCc3cc(C(=O)Nc4nnn[nH]4)ccc32)CC1` (stereo not given in full), the IC50 stood at 4.8 nM at Glucagon receptor [14], 67 nM at Glucagon receptor [15] (read-out: IC50) and 118 nM in data set [1].

As to `CC(C)(C)[C@H]1CC[C@H](N(C(=O)c2ccc(OC(F)(F)F)cc2)C2CCc3cc(C(=O)NCCC(=O)O)ccc32)CC1` (stereo not given in full), the IC50 worked out at 130 nM at Glucagon receptor [14] and 2780 nM on Glucagon receptor [15] (read-out: IC50).

As to `CC(C)(C)[C@H]1CC[C@@H](N(C(=O)Nc2ccc(OC(F)(F)F)cc2)C2CCc3cc(C(=O)Nc4nn[nH]n4)ccc32)CC1` (stereo not given in full), the 50% inhibitory concentration (IC50) on Glucagon receptor [14] was 216 nM; at Glucagon receptor [15] (read-out: IC50) it was 795 nM.

For `CC(C)(C)[C@H]1CC[C@H](N(C(=O)Nc2ccc(OC(F)(F)F)cc2)C2CCCc3cc(C(=O)NCCC(=O)O)ccc32)CC1` (stereo not given in full), the IC50 in data set [1] was 171 nM. Also, the clearance in [2] came to 9 mL/min/kg. In addition, the Vd in data set [3] is 0.9 L/kg. Besides, the half-life in [4] was 2.5 h. Moreover, in data set [5], the peak level (Cmax) was 90 nM. The molecule further gave a bioavailability in data set [6] of 10%.

For `O=C(O)CCNC(=O)c1ccc2c(c1)CCC2N(C(=O)Nc1ccc(OC(F)(F)F)cc1)c1ccc(C2CCCCC2)cc1` (stereo not given), the results for the IC50 at Glucagon receptor [14] and on Glucagon receptor [15] (read-out: IC50) were 68 nM and 189 nM, respectively.

Regarding `CC(C)(C)[C@H]1CC[C@@H](N(C(=O)Nc2ccc(OC(F)(F)F)cc2)C2CCc3cc(C(=O)NCCC(=O)O)ccc32)CC1` (single isomer, unassigned), the IC50 is 3.8 nM on Glucagon receptor [14], 46 nM on Glucagon receptor [15] (read-out: IC50) and 603 nM in [1].

Turning to `CC(C)(C)[C@H]1CC[C@H](N(C(=O)Nc2cc(Cl)cc(Cl)c2)C2CCc3cc(C(=O)NCCC(=O)O)ccc32)CC1` (stereo not given in full), the IC50 on Glucagon receptor [14] was 10 nM; at Glucagon receptor [15] (read-out: IC50), 11 nM; in [1], 1280 nM. For the same molecule, the Fold change in the data set with CHO was greater than 100.

Take `O=C(Nc1nn[nH]n1)c1ccc2c(c1)CCC2N(C(=O)Nc1ccc(OC(F)(F)F)cc1)c1ccc(C2CCCCC2)cc1` (stereo not given): the IC50 at Glucagon receptor [14] is 22 nM; on Glucagon receptor [15] (read-out: IC50), 85 nM.

With `O=C(Nc1nnn[nH]1)c1ccc2c(c1)CCC2N(C(=O)Nc1ccc(OC(F)(F)F)cc1)c1ccc(OC(F)(F)F)cc1` (stereo not given), the IC50 at Glucagon receptor [14] was 62 nM; at Glucagon receptor [15] (read-out: IC50), 3430 nM.

For `CC(C)(C)[C@H]1CC[C@H](N(C(=O)Nc2cc(C(F)(F)F)cc(C(F)(F)F)c2)C2CCc3cc(C(=O)NCCC(=O)O)ccc32)CC1` (stereo not given in full), the IC50 on Glucagon receptor [14] came out at 28 nM; at Glucagon receptor [15] (read-out: IC50), 46 nM; in [1] it was 2020 nM.

`CC(C)(C)[C@H]1CC[C@H](N(C(=O)Cc2ccc(OC(F)(F)F)cc2)C2CCc3cc(C(=O)NCCC(=O)O)ccc32)CC1` (stereo not given in full): the IC50 at Glucagon receptor [14] is 18 nM; on Glucagon receptor [15] (read-out: IC50), 500 nM; in [1] it was 286 nM.

With `CC(C)(C)[C@H]1CC[C@H](N(C(=O)Nc2ccc(OC(F)(F)F)cc2)C2CCOc3cc(C(=O)NCCC(=O)O)ccc32)CC1` (stereo not given in full), in data set [1], the IC50 amounted to 217 nM. This molecule also came in with a clearance in [2] of 13 mL/min/kg. Moreover, the Vd in data set [3] was 1.4 L/kg. In data set [4], this molecule showed a half-life of 3.4 h. In data set [5], this molecule displayed a Cmax of 60 nM. Besides, the bioavailability in data set [6] was 15%.

`CC(C)(C)[C@H]1CC[C@H](N(C(=O)Nc2cc(C(F)(F)F)cc(C(F)(F)F)c2)C2CCc3cc(C(=O)Nc4nnn[nH]4)ccc32)CC1` (stereo not given in full): the IC50 on Glucagon receptor [14] stood at 7.6 nM; on Glucagon receptor [15] (read-out: IC50) it was 61 nM; in [1], 4260 nM.

In the case of `CC(C)(C)[C@H]1CC[C@H](N(C(=O)Nc2ccc(OC(F)(F)F)cc2)C2CCc3cc(C(=O)Nc4nn[nH]n4)ccc32)CC1` (stereo not given in full), the IC50 in data set [1] was 296 nM.

Consider `CC(C)(C)[C@H]1CC[C@H](N(C(=O)Nc2cc(Cl)cc(Cl)c2)C2CCc3cc(C(=O)Nc4nn[nH]n4)ccc32)CC1` (stereo not given in full), for which the IC50 at Glucagon receptor [14] was 4.9 nM; on Glucagon receptor [15] (read-out: IC50) it was 5.9 nM; in data set [1], 3530 nM. The Fold change in the data set on CHO was greater than 500.

With `CC(C)(C)[C@H]1CC[C@H](N(C(=O)Nc2ccc(OC(F)(F)F)cc2)C2CCOc3cc(C(=O)Nc4nn[nH]n4)ccc32)CC1` (stereo not given in full), the IC50 in data set [1] is 117 nM.

As for `O=C(O)CCNC(=O)c1ccc2c(c1)CCC2N(C(=O)Nc1ccc(OC(F)(F)F)cc1)c1ccc(OC(F)(F)F)cc1` (stereo not given), the IC50 was 820 nM at Glucagon receptor [14] and “Not Active” on Glucagon receptor [15] (cho).

For the molecule `CC(C)(C)[C@H]1CC[C@@H](N(C(=O)Nc2ccc(OC(F)(F)F)cc2)C2CCc3cc(C(=O)NCCC(=O)O)ccc32)CC1` (stereo not given in full), the IC50 on Glucagon receptor [14] came out at 3380 nM.

`CC(C)(C)[C@H]1CC[C@H](N(C(=O)Nc2ccc(OC(F)(F)F)cc2)C2CCCc3cc(C(=O)Nc4nn[nH]n4)ccc32)CC1` (stereo not given in full): in data set [1], the IC50 came out at 178 nM. Further, the clearance in [2] was found to be 6.4 mL/min/kg. Further, the Vd in data set [3] came to 1.4 L/kg. Also, the half-life in data set [4] was 8 h. The same molecule yielded a Cmax in data set [5] of 40 nM. Moreover, the bioavailability in data set [6] was 1.4%.
